Laboratory results published in article PMC4508327 (Clinical cancer research : an official journal of the …, 2015).

How the values were obtained:
[1] = preclinical; no reference given; cited from earlier work
[2] = tested on: patients with advanced solid tumors; assay: Phase I safety: adverse events
[3] = in vivo
[4] = QTc interval; assay type: in vivo, human
[5] = tested on: patients with advanced solid tumors; settings: human, in vivo
[6] = tested on: advanced solid tumors; assay: Objective tumor response; assay type: in vivo, human

CN(C)C1CCN(C(=O)c2ccc(NC(=O)Nc3ccc(-c4nc(N5CCOCC5)nc(N5CCOCC5)n4)cc3)cc2)CC1 [PF-05212384]
effect on cardiac, central nervous system or respiratory function [1]: did not show any significant effect | maximum tolerated dose (MTD) ([2]; IV once weekly, estimated by modified CRM): 154 mg | deaths on study and within 28 days of last-dose administration ([2]; seven disease progression, one colon obstruction, one pneumonia): Nine | accumulation (accumulation ratios for Cmax) ([3]; human): no accumulation | interpatient variability in Cmax and AUC ([3]; human): low to moderate | terminal T1/2, mean values ([3]; human): 33 to 41 h | Cmax and AUC versus dose [3]: appeared to increase proportionally with increasing dose | association with QTc prolongation ([4]; based on the lack of a dose-effect relationship): likely not associated with QTc prolongation | patients with grade 1 QTc prolongation ([4]; human, in vivo): 5% | patients with grade 2 QTc prolongation ([4]; human, in vivo): 5% | patients with grade 3 QTc prolongation ([4]; in vivo): no patients | all-cause AE: anemia [5]: 18.2% | all-cause AE: asthenia [5]: 26% | all-cause AE: back pain [5]: 19.5% | all-cause AE: constipation [5]: 23.4% | all-cause AE: cough [5]: 23.4% | all-cause AE: decreased appetite [5]: 37.7% | all-cause AE: diarrhea [5]: 24.7% | all-cause AE: dyspnea [5]: 19.5% | all-cause AE: fatigue [5]: 32.5% | all-cause AE: hyperglycemia [5]: 28.6% | all-cause AE: increased ALT and AST [5]: 16.9% | all-cause AE: mucosal inflammation and stomatitis [5]: 59.7% | all-cause AE: nausea [5]: 55.8% | all-cause AE: pyrexia [5]: 23.4% | all-cause AE: rash [5]: 23.4% | all-cause AE: vomiting [5]: 35.1% | patients who discontinued due to treatment-related AEs [5]: 3.9% | treatment-related AE: decreased appetite [5]: 24.7% | treatment-related AE: fatigue [5]: 24.7% | treatment-related AE: hyperglycemia [5]: 26% | treatment-related AE: mucosal inflammation and stomatitis [5]: 58.4% | treatment-related AE: nausea [5]: 42.9% | treatment-related AE: vomiting [5]: 24.7% | recommended phase 2 dose ([5]; iv): 154 mg | patients with long-lasting stable disease (>6 months) ([6]; 77 treated patients): Eight | clinical benefit response (CBR) ([6]; CR, PR or SD lasting ≥6 months, overall): 13% | objective tumor response rate ([6]; overall study population, n = 77): 2.6% | partial responses (PR) ([6]; overall study population, plus one unconfirmed PR): two
